One test concerns the target T1, PotF_Prox (Escherichia coli, UniProt P31133, D247S/D39E/S38T).
T1 construct: without the N-terminal signal peptide; made in house; host or cells: E. coli BL21 (DE3)
T1 sequence (P31133 27-370 S38T/D39E/D247S): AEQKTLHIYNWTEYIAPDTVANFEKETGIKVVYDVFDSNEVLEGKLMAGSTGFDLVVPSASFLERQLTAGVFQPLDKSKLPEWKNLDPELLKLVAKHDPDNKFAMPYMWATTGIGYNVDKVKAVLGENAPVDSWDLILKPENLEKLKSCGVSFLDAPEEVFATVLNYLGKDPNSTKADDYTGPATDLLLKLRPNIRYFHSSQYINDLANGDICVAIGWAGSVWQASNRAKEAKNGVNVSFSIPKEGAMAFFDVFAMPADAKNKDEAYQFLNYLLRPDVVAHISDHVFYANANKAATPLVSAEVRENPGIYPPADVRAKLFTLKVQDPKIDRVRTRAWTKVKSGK
The test is described as follows: ITC, PotF_Prox (S38T, D39E, D247S). The test is classed as binding. The conditions noted are these: 293 K, 50 mM Tris pH 8, 300 mM NaCl, biological triplicates. How it is done: (§1) Ligands were always freshly prepared in the exact same buffer as was used for the size exclusion run. Samples were degassed, and temperature was equilibrated using a degassing station (TA Instruments). About 400 μl protein sample of different concentrations (Table S5) depending on affinity was transferred into the sample cell of a nanoITC (TA Instruments), and 50 μl of about tenfold concentrated ligand solution was loaded into the injection needle. Multiple injection measurements were carried out at 293 K, 300 rpm stirring rate, and 250 s spacings between each 2 μl injection. The heat quantity past injection was determined by integration of the measured peaks. Every protein–ligand combination was measured as biological triplicate. Subtraction of heat of dilution measurements, peak integration, and one site binding fits were done with NanoAnalyze (TA Instruments). Reported errors are the errors between fits of the measured triplicates.
In general terms: ITC needs no label: the signal is the heat of the interaction.

The target of a further test is T2, PotF/D (Escherichia coli, UniProt P31133, A182D/D247S/D39E/F276W/L348Q/S38T/S87Y).
T2 construct: without the N-terminal signal peptide; made in house; host or cells: E. coli BL21 (DE3)
T2 sequence (P31133 27-370 S38T/D39E/S87Y/A182D/D247S/F276W/L348Q): T1 sequence (P31133 27-370 S38T/D39E/D247S) with S61Y, A156D, F250W, L322Q
The test is described as follows: ITC, PotF/D (PotF_SPD; seven PotD binding pocket residues grafted onto PotF). The conditions noted are these: 293 K. How it is done:
as §1

In a further test the target is T3, PotF/D–E39D–F88A (Escherichia coli, UniProt P31133, A182D/D247S/F276W/F88A/L348Q/S38T/S87Y).
T3 construct: without the N-terminal signal peptide; made in house; host or cells: E. coli BL21 (DE3)
T3 sequence (P31133 27-370 S38T/S87Y/F88A/A182D/D247S/F276W/L348Q): T1 sequence (P31133 27-370 S38T/D39E/D247S) with E13D, S61Y, F62A, A156D, F250W, L322Q
The experiment in a line: ITC, PotF/D–E39D–F88A. It counts as binding. The conditions noted are these: 293 K. How it is done: as §1

In the next test the target is T4, PotF/D–E39D–F88L (Escherichia coli, UniProt P31133, A182D/D247S/F276W/F88L/L348Q/S38T/S87Y).
T4 construct: without the N-terminal signal peptide; made in house; host or cells: E. coli BL21 (DE3)
T4 sequence (P31133 27-370 S38T/S87Y/F88L/A182D/D247S/F276W/L348Q): T1 sequence (P31133 27-370 S38T/D39E/D247S) with E13D, S61Y, F62L, A156D, F250W, L322Q
The experiment in a line: ITC, PotF/D–E39D–F88L. It counts as binding. The conditions noted are these: 293 K. The procedure: as §1

Another test addresses T5, PotF/D–E39D–Y87S–F88Y (Escherichia coli, UniProt P31133, A182D/D247S/F276W/F88Y/L348Q/S38T).
T5 construct: without the N-terminal signal peptide; made in house; host or cells: E. coli BL21 (DE3)
T5 sequence (P31133 27-370 S38T/F88Y/A182D/D247S/F276W/L348Q): T1 sequence (P31133 27-370 S38T/D39E/D247S) with E13D, F62Y, A156D, F250W, L322Q
The experiment in a line: ITC, PotF/D–E39D–Y87S–F88Y. The conditions noted are these: 293 K. It counts as binding. How it is done:
as §1

For another test, the system named is PotD. The conditions noted are these: cited from earlier work.
Where [1] appears, read: ITC, 50 mM Tris pH 8, 300 mM NaCl, biological triplicates.

This is an account of results in PMC8666671, “Fine-tuning spermidine binding modes in the putrescine binding protein PotF” (The Journal of Biological Chemistry, 2021).

SMILES strings stand for the structures. Positions count from the first letter of the chain named. Values joined by “and” are separate entries in the source; they are usually repeats but may differ in a detail not shown here. Equal entries are not always repeated.

A word on the Kd: it is a measure of binding affinity in units of concentration.

For `NCCCCN` [PUT, putrescine], on PotF_Prox, the KD result is “abolishes association”.
As to `NCCCCNCCCN` [SPD, spermidine], the n on PotF/D (ITC binding stoichiometry) was 0.94 ± 0.02; at PotF/D–E39D–F88A (ITC binding stoichiometry) it was 0.98 ± 0.03; on PotF/D–E39D–F88L (ITC binding stoichiometry) it was 1.03 ± 0.01; at PotF/D–E39D–Y87S–F88Y (ITC binding stoichiometry), 0.99 ± 0.02. For the same molecule, the ΔG is -5.94 ± 0.04 kcal/mol on PotF/D (ITC); -6.73 ± 0.03 kcal/mol at PotF/D–E39D–F88A (ITC); -6.71 ± 0.03 kcal/mol on PotF/D–E39D–F88L (ITC); -7.09 ± 0.15 kcal/mol at PotF/D–E39D–Y87S–F88Y (ITC); -11.13 ± 0.12 kcal/mol in the test on PotD (ITC). Besides, the ΔH on PotF/D (ITC) is -9.30 ± 0.20 kcal/mol; at PotF/D–E39D–F88A (ITC), -12.22 ± 0.35 kcal/mol; on PotF/D–E39D–F88L (ITC), -12.31 ± 0.11 kcal/mol; at PotF/D–E39D–Y87S–F88Y (ITC) it was -7.81 ± 0.21 kcal/mol; with PotD (ITC) it was -16.40 ± 1.4 kcal/mol. Further, the “−TΔS” value at PotF/D (ITC) is 3.36 ± 0.24 kcal/mol; at PotF/D–E39D–F88A (ITC) it was 5.49 ± 0.36 kcal/mol; on PotF/D–E39D–F88L (ITC), 5.60 ± 0.13 kcal/mol; at PotF/D–E39D–Y87S–F88Y (ITC), 0.71 ± 0.32 kcal/mol; in the test with PotD (ITC), 5.24 ± 1.39 kcal/mol. Moreover, the Kd on PotF/D (setting [1]) is ~37 µM and 37.3 µM; on PotF/D–E39D–F88A (setting [1]), 9.6 ± 0.54 µM; on PotF/D–E39D–F88L (setting [1]) it was ~9.9 µM and 9.9 µM; at PotF/D–E39D–Y87S–F88Y (setting [1]), ~5.3 µM and 5.3 µM and 5.32 µM; on PotD, about 0.006 µM.
